Measurements published in patent US20250221981A1, “MAT2A INHIBITOR AND/OR TSG101 INHIBITOR FOR USE IN ANTIVIRAL THERAPY” (CAMBRIDGE ENTERPRISE LIMITED, priority 2022, published 2025).

Legend:
RPTE/hTERT cells = assay: Cell viability assay, CellTiter-Blue fluorescence
Procedure: RPTE/hTERT cells were treated with MAT2A inhibitors at increasing concentrations for 48 hrs and assayed for cell viability using CellTiter-Blue fluorescence. Experiments were conducted using biological triplicates.
Experiment was conducted using biological triplicates.
Cell viability was assessed using the Cell-Titer-Blue assay (Promega), following manufacturers guidelines.

[1] = system: Semliki Forest Virus 4 (SFV4); assay: SFV4 titre by plaque assay (BHK-21 cells infected, titrated on BSR cells); format: cell-based; details: 2 μM, MOI >10, 24 hrs, initial tests
Procedure: (§1) (A) SINV and SFV4: BHK-21 cells were plated. The following day 2 μM PF-9366 or DMSO control was added to media. After 3 hrs cells were infected with SINV or SFV4 (MOI >10). After 24 hrs cells were harvested by scraping. Cells were either pelleted for western blot or freeze/thawed for titration. To titre: BSR cells were plated and the following day infected with 10-fold dilutions, at 1 hpi cells were overlayed with LMA in 2×MEM (+5% FCS). At 72 hpi cells were fixed and stained with toluidine blue.
(§2) For Alphavirus infections BHK-21 cells were infected with either SINV or SFV-4 at a multiplicity of infection (MOI) greater than 10, diluted in appropriate medium. At 1 hour post infection (hpi) medium was removed, cells were washed twice with phosphate-buffered saline (PBS), and fresh medium was added. At 24 hpi supernatants were harvested for virus titre by plaque assay.
(§3) For SINV and SFV4, confluent BSR cell monolayers were infected with 10-fold dilutions of samples. At 1 hpi cells were overlayed with low melting-point agarose in 2×MEM (+5% FCS). Cells were fixed at 72 hpi and stained with toluidine blue, allowing plaques to be counted.
(§4) TSG101 inhibitor Ilaprazole (Sigma-Aldrich) was diluted in 100% DMSO. […]

[2] = system: Herpes Simplex Virus-1 (HSV-1); assay: HSV-1 titre by plaque assay (HaCaT cells infected, titrated on VERO cells); format: cell-based; details: 20 μM, MOI 10, 16 hrs
Procedure: FIG. 9: Inhibition of MAT2A with PF-9366 reduces Herpes Simplex Virus-1 (HSV-1) virion assembly Immortalised keratinocyte (HaCaT) cells were plated and treated with 20 μM PF-9366 or DMSO control. After 3 hrs cells were infected with HSV-1 (MOI 10). After 16 hrs cells were harvested by scraping and either pelleted for western blot or freeze/thawed for titration. To titre: VERO cells were plated and the following day infected with 10-fold dilutions, at 1 hpi cells were overlayed with CMC/media. At 48 hpi cells were fixed and stained with toluidine blue. To western blot: Pellets were lysed and run on SDS-PAGE gel. Proteins were transferred overnight to nitrocellulose membranes. Membranes were probed for HSV-1 ICP0 and VP16 proteins and Tubulin as a control.
For HSV-1 infections HaCaT cells were infected with HSV-1 at a multiplicity of infection (MOI) of 10 diluted in appropriate medium. At 1 hour post infection (hpi) medium was removed, cells were washed twice with phosphate-buffered saline (PBS), and fresh medium was added with or without inhibitors. At 16 hpi cells were either harvested for western blot or virus titre by plaque assay.
For HSV-1, confluent VERO cell monolayers were infected with 10-fold dilutions of samples. […] Cells were fixed at 48 hpi and stained with toluidine blue, allowing plaques to be counted. […]

Sindbis virus (SINV) = assay: SINV titre by plaque assay (BHK-21 cells infected, titrated on BSR cells); format: cell-based; details: 2 μM, MOI >10, 24 hrs, initial tests
Procedure: as §1, §2, §3, §4

MAT2A = assay: Western blot of cellular MAT2A expression in BKPyV infected RPTE/TERT1 cells; format: cell-based, human; details: 10 μM; BKPyV MOI 3; 48 hpi; normalised to tubulin
Procedure: (C)(i) Effect of PF-9366 on viral early and late gene and cellular MAT2A expression: Cells were infected with BKPyV (MOI 3) in media containing appropriate drug concentrations. At 1 hpi infectious media was removed, cells were washed and fresh media with appropriate drug concentrations was added. Cells were harvested at 48 hpi and a western blot performed. Membranes were blotted for viral late gene VP1, LTAg, cellular MAT2A/MAT1A, and tubulin as a loading control.
(ii) Cellular MAT2A expression increases at lower PF-9366 concentrations: The density of MAT2A expression (lower western blot band) was measured, normalized to tubulin loading control (LiCor Image Studio Software), n=3.
It has previously been noted by Quinlan et al. (Nat Chem Biol. 2017 13 (7): 785-792) that treatment with PF-9366 can increase MAT2A expression as a compensatory mechanism within cells. […] At 48 hpi cells were harvested and protein expression was analysed by western blotting (FIG. 3C(i)). MAT2A expression was quantified from band intensities, normalised to the tubulin loading control and plotted (FIG. 3C(ii), n=3). […]
Cell lysate preparation and western blots were performed as described in Ren et al. (J Gen Virol. 2012 February; 93 (Pt 2): 319-329). […] Quantification was performed using LI-COR Image Studio Software.

Compound	effect on cell viability and metabolism (RPTE/hTERT cells; MAT2A inhibitor (AG270 1 μM, AZ33 125 nM) in combination with Ilaprazole (5 μM), until 144 hr)	effect on cell viability and metabolism (RPTE/hTERT cells; at concentrations inhibiting BKPyV replication, 48 hrs)	reduction in viral titre (SFV4) [1]	reduction in HSV-1 viral titres [2]	reduction in viral titre (SINV) (Sindbis virus (SINV))	increase in the cellular expression of MAT2A (MAT2A) [fold]
COc1ccc(-c2c(Nc3ccccn3)[nH]c3c(C4=CCCCC4)c(-c4ccccc4)nn3c2=O)cc1 [AG-270]	little effect	little effect	–	–	–	–
CN(C)CCc1nnc2cc(-c3ccccc3)c3cc(Cl)ccc3n12 [PF-9366]	–	–	7-10 fold	greater than 100 fold	7-10 fold	8
